Results published in patent US10053477B2, “Spirocyclic aryl phosphorus oxide and aryl phosphorus sulfide” (QILU PHARMACEUTICAL CO., LTD., priority 2014, dated 2018).
pIC50: −log10 of the molar value.

How the values were obtained:
[1] = tested on: LU-01-0015 xenotransplantation (PDX) from lung cancer patients; test: In vivo efficacy, LU-01-0015 xenotransplantation (PDX) from lung cancer patients; set-up: species or system BALB/c nude mice; conditions: 25 mg/kg orally everyday
Source text: BALB/c nude mice, female, 6 to 8 weeks, about 18 to 22 g bodyweight, was kept in a special environment without pathogens, and a single ventilated cage (5 mice per cage). Beddings and water in all the cages were disinfected before use. […] 80 mice were supplied by Shanghai BK Laboratory Animal Co., LTD for study. Each mouse was subcutaneously implanted tumor tissue (20-30 mm^3) at right flank for growth of tumor. When the average tumor volume reached about 250-300 mm^3, the assay started. Test compounds were delivered orally everyday, 25 mg/kg. Tumor size was measured with two-dimensional caliper every 3 days, size was recorded by mm^3, and calculated by the following formula: V=V=0.5a×b2, where a and b are respectively the long diameter and short diameter length of the tumor. The antitumor efficacy was determined by dividing the average increased tumor volume in compound-treated animal by the average increased tumor volume in untreated animal.

[2] = target: T1, EGFR T790M/L858R (Homo sapiens, UniProt P00533, L858R/T790M); test: EGFR T790M/L858R enzymatic inhibition (HTRF); type: biochemical; conditions: 20 μM ATP
T1 construct: purchased Life technology (Madison, Wis.)
T1 sequence (P00533 25-1210 T790M/L858R): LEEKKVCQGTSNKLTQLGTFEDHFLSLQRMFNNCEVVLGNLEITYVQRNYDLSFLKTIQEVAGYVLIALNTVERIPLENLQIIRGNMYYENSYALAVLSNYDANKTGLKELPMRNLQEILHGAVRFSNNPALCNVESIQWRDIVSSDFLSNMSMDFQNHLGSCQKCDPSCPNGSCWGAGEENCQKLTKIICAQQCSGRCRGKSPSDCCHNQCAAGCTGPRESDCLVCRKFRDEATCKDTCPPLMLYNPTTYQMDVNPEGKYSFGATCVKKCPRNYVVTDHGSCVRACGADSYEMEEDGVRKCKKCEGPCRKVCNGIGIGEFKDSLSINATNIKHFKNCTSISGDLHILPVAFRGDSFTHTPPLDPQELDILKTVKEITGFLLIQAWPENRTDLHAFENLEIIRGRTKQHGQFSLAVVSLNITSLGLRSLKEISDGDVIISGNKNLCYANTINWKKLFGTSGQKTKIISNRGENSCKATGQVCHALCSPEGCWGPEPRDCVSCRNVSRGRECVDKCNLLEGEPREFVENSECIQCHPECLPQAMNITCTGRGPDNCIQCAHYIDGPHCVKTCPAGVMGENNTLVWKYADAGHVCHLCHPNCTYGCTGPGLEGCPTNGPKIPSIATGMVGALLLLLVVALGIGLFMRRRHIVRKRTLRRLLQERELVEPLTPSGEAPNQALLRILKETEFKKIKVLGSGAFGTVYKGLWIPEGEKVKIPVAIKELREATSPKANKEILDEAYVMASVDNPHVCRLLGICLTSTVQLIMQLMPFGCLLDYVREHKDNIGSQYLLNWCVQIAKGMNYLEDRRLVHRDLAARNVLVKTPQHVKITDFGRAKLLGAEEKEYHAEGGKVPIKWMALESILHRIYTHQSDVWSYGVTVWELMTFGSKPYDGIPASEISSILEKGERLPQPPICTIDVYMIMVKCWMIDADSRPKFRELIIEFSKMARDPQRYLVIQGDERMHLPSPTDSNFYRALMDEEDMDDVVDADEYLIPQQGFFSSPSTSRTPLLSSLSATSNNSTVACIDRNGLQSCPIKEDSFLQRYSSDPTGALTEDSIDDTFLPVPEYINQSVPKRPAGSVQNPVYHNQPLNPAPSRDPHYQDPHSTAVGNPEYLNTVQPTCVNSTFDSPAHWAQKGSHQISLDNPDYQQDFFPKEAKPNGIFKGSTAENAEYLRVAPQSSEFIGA
Protocol: Enzyme: ALK wild-type, ALK C1156Y and ALK L1196M supplied by Carna Biosciences (Japan), EGFR T790M/L858R supplied by Life technology (Madison, Wis.).
HTRF kit: supplied by Cis-Bio International, with Eu-marked TK1 antibody, XL665- and biotin-labelled TK1 polypeptide substrates.
The compound to be tested is diluted at a gradient by 3 times thereby giving 11 gradients starting from […] to 0.017 nM for the final concentration.
10 μl EGFR T790M/L858R enzyme reaction mixture system: 0.08 nM EGFR T790M/L858R, 1 μM biotin-TK1 peptide, 20 μM ATP. Reaction buffer: 50 mM Hepes (pH7.5), 10 mM MgCl2, 0.01 mM NaV3VO4. The reaction plate was white Proxiplate 384-Plus plate (PerkinElmer). Reaction was reacted at room temperature for 60 minutes.
Detecting reaction: 10 μl testing reagent was added to the reaction plate, the final concentration of Antibody was 2 nM, XL665 was 62.5 nM. Incubation was carried out for 60 minutes at room temperature. Detection was by Envision.

[3] = tested on: LU-01-0319 Crizotinib resistance model; test: In vivo anti-tumor efficacy, Crizotinib resistant LU-01-0319 xenotransplantation (PDX) tumor; set-up: species or system BALB/c nude mice
Source text: LU-01-0319 xenotransplantation tumor models initially obtained from clinical sample through surgical resection were implanted into nude mice, which was defined as a batch of P0 (LU-01-0319-P0). The next batch was defined as P1 (LU-01-0319-P1) which was implanted tumors from P0. FP3 was regained from P2, the next batch was defined as FP4 which was implanted tumors from FP3. […] The continuous increasing tumors were defined as LU-01-0319 antitumor models. BALB/c nude mice, female, 6 to 8 weeks, about 18 to 22 g bodyweight, 75 mice were used for study, supplied by Shanghai BK Laboratory Animal Co., LTD. Tumour biopsies (about 30 mm^3) of LU-01-0319R FP6 were implanted subcutaneously on right side of each mouse for growth of tumor. […] Dose of Crizotinib was appropriately varied depending on the tumor size. When average tumor volume reached about ˜500 mm^3, the assay began. Once a day the compounds to be tested were orally administered. Tumor size were measured twice a week with a caliper at two dimensions, and calculated with the following formula: V=0.5a×b2, where a and b are respectively long diameter and short diameter of the tumor. The antitumor efficacy was determined by dividing the average increased tumor volume in compound-treated animal by the average increased tumor volume in untreated animal.

| pIC50 [2] | Compound | Tumor volume ([1]; 3 days) | Tumor volume ([1]; 6 days) | Tumor volume ([1]; 9 days) | Tumor volume ([1]; 12 days) | Tumor volume ([1]; 16 days) | Tumor volume ([1]; 19 days) | Tumor volume ([1]; 23 days) | also measured |
| --- | --- | --- | --- | --- | --- | --- | --- | --- | --- |
| 7.00 to 9.00 | COc1cc(N2CCC3(CCN(C)CC3)CC2)c(Cl)cc1Nc1ncc(Cl)c(Nc2ccccc2P(C)(C)=O)n1 [Compound 22, (2-((5-Chloro-2-((5-chloro-2-methoxy-4-(9-methyl-3,9-diazaspiro[5.5]undecan-3-yl)phenyl)amino)pyrimidin-4-yl)amino)phenyl)dimethyl phosphine oxide] | 234 mm^3 | 137 mm^3 | 90 mm^3 | 68 mm^3 | 46 mm^3 | 54 mm^3 | 41 mm^3 |  |
| 7.00 to 9.00 | COc1cc(N2CCC3(CCNCC3)CC2)ccc1Nc1ncc(Cl)c(Nc2ccccc2P(C)(C)=O)n1 [Compound 8, (2-((5-Chloro-2-((2-methoxy-4-(3,9-diazaspiro[5.5]undecan-3-yl)phenyl)amino)pyrimidin-4-yl)amino)phenyl)dimethyl phosphine oxide] |  |  |  |  |  |  |  |  |
| 7.00 to 9.00 | COc1cc(N2CCC3(CC2)CNC3)ccc1Nc1ncc(Cl)c(Nc2ccccc2P(C)(C)=O)n1 [Compound 4, (2-((5-Chloro-2-((2-methoxy-4-(2,7-diazaspiro[3.5]nonan-7-yl)phenyl)amino)pyrimidin-4-yl)amino)phenyl)dimethyl phosphine oxide] |  |  |  |  |  |  |  |  |
| 7.00 to 9.00 | COc1cc(N2CCC3(CCNC3)CC2)ccc1Nc1ncc(Cl)c(Nc2ccccc2P(C)(C)=O)n1 [Compound 3, (2-((5-Chloro-2-((2-methoxy-4-(2,8-diazaspiro[4.5]decan-8-yl)phenyl)amino)pyrimidin-4-yl)amino)phenyl)dimethylphosphine oxide] |  |  |  |  |  |  |  |  |
| 7.00 to 9.00 | COc1cc(N2CCC3(CNC3)C2)ccc1Nc1ncc(Cl)c(Nc2ccccc2P(C)(C)=O)n1 [Compound 6, (2-((5-Chloro-2-((2-methoxy-4-(2,6-diazaspiro[3.4]octan-6-yl)phenyl)amino)pyrimidin-4-yl)amino)phenyl)dimethyl phosphine oxide] |  |  |  |  |  |  |  |  |
| 7.00 to 9.00 | CN1CCC2(CC1)CCN(c1ccc(Nc3ncc(Cl)c(Nc4ccccc4P(C)(C)=O)n3)c(OC(F)F)c1)CC2 [Compound 11, (2-((5-Chloro-2-((2-(difluoromethoxy)-4-(9-methyl-3,9-diazaspiro[5.5]undecan-3-yl)phenyl)amino)pyrimidin-4-yl)amino)phenyl)dimethyl phosphine oxide] |  |  |  |  |  |  |  |  |
| 7.00 to 9.00 | COc1cc(N2CCC3(CCN(C)CC3)CC2)c(C)cc1Nc1ncc(Cl)c(Nc2ccccc2P(C)(C)=O)n1 [Compound 23, (2-((5-Chloro-2-((2-methoxy-5-methyl-4-(9-methyl-3,9-diazaspiro[5.5]undecan-3-yl)phenyl)amino)pyrimidin-4-yl)amino)phenyl)dimethyl phosphine oxide] |  |  |  |  |  |  |  |  |
| 7.00 to 9.00 | COc1cc(N2CCC3(CCN(C)CC3)CC2)ccc1Nc1ncc(Cl)c(Nc2ccc(F)cc2P(C)(C)=O)n1 [Compound 26, (2-((5-Chloro-2-((2-methoxy-4-(9-methyl-3,9-diazaspiro[5.5]undecan-3-yl)phenyl)amino)pyrimidin-4-yl)amino)-5-fluorophenyl)dimethyl phosphine oxide] | 235 mm^3 | 127 mm^3 | 84 mm^3 | 55 mm^3 | 46 mm^3 | 59 mm^3 | 53 mm^3 |  |
| 7.00 to 9.00 | COc1cc(C2CCC3(CC2)CCN(C)CC3)ccc1Nc1ncc(Cl)c(Nc2ccccc2P(C)(C)=O)n1 [Compound 27, (2-((5-Chloro-2-((2-methoxy-4-(3-methyl-3-azaspiro[5.5]undecan-9-yl)phenyl)amino)pyrimidin-4-yl)amino)phenyl)dimethyl phosphine oxide] | 158 mm^3 | 82 mm^3 | 68 mm^3 | 49 mm^3 | 34 mm^3 | 41 mm^3 | 35 mm^3 | Tumor volume ([3]; 0 day, dosage 3 mg/Kg orally once a day): 503 mm^3; Tumor volume ([3]; 0 day, dosage 10 mg/Kg orally once a day): 502 mm^3; Tumor volume ([3]; 3 days, dosage 3 mg/Kg orally once a day): 689 mm^3; Tumor volume ([3]; 3 days, dosage 10 mg/Kg orally once a day): 650 mm^3; Tumor volume ([3]; 7 days, dosage 3 mg/Kg orally once a day): 777 mm^3; Tumor volume ([3]; 7 days, dosage 10 mg/Kg orally once a day): 752 mm^3; Tumor volume ([3]; 10 days, dosage 3 mg/Kg orally once a day): 1003 mm^3; Tumor volume ([3]; 10 days, dosage 10 mg/Kg orally once a day): 743 mm^3; Tumor volume ([3]; 13 days, dosage 3 mg/Kg orally once a day): 1177 mm^3; Tumor volume ([3]; 13 days, dosage 10 mg/Kg orally once a day): 705 mm^3; Tumor volume ([3]; 17 days, dosage 3 mg/Kg orally once a day): 1490 mm^3; Tumor volume ([3]; 17 days, dosage 10 mg/Kg orally once a day): 756 mm^3; Tumor volume ([3]; 19 days, dosage 3 mg/Kg orally once a day): 1602 mm^3; Tumor volume ([3]; 19 days, dosage 10 mg/Kg orally once a day): 692 mm^3 |
| 7.00 to 9.00 | COc1cc(N2CCC3(CCN(C)CC3)CC2)c(F)cc1Nc1ncc(Cl)c(Nc2ccccc2P(C)(C)=O)n1 [Compound 20, (2-((5-Chloro-2-((5-fluoro-2-methoxy-4-(9-methyl-3,9-diazaspiro[5.5]undecan-3-yl)phenyl)amino)pyrimidin-4-yl)amino)phenyl)dimethyl phosphine oxide] |  |  |  |  |  |  |  |  |
|  | C[C@@H](Oc1cc(-c2cnn(C3CCNCC3)c2)cnc1N)c1c(Cl)ccc(F)c1Cl [Crizotinib, reference compound] | 297 mm^3 | 288 mm^3 | 311 mm^3 | 340 mm^3 | 413 mm^3 | 419 mm^3 | 439 mm^3 | Tumor volume ([3]; 0 day, 25 mg/Kg orally once a day): 502 mm^3; Tumor volume ([3]; 3 days, 25 mg/Kg orally once a day): 708 mm^3; Tumor volume ([3]; 7 days, 25 mg/Kg orally once a day): 828 mm^3; Tumor volume ([3]; 10 days, 25 mg/Kg orally once a day): 1002 mm^3; Tumor volume ([3]; 13 days, 25 mg/Kg orally once a day): 1116 mm^3; Tumor volume ([3]; 17 days, 25 mg/Kg orally once a day): 1415 mm^3; Tumor volume ([3]; 19 days, 25 mg/Kg orally once a day): 1488 mm^3 |
| 6.00 to 7.00 | COc1cc(N2CCC3(CCN(C)CC3)CC2)ccc1Nc1ncc(Cl)c(Nc2c(F)cccc2P(C)(C)=O)n1 [Compound 25, (2-((5-Chloro-2-((2-methoxy-4-(9-methyl-3,9-diazaspiro[5.5]undecan-3-yl)phenyl)amino)pyrimidin-4-yl)amino)-3-fluorophenyl)dimethyl phosphine oxide] |  |  |  |  |  |  |  |  |

| Compound | pIC50 [2] | Tumor volume ([1]; 3 days) | Tumor volume ([1]; 6 days) | Tumor volume ([1]; 9 days) | Tumor volume ([1]; 12 days) | Tumor volume ([1]; 16 days) | Tumor volume ([1]; 19 days) | Tumor volume ([1]; 23 days) | also measured |
| --- | --- | --- | --- | --- | --- | --- | --- | --- | --- |
| COc1cc(N2CCC3(CCN(C)CC3)CC2)ccc1Nc1ncc(Cl)c(Nc2ccccc2P(C)(C)=S)n1 [Compound 12, 5-Chloro-N^4-(2-(dimethylphosphorothioyl)phenyl)-N^2-(2-methoxy-4-(9-methyl-3,9-diazaspiro[5.5]undecan-3-yl)phenyl)pyrimidine-2,4-diamine] | 7.00 to 9.00 | 199 mm^3 | 97 mm^3 | 90 mm^3 | 58 mm^3 | 49 mm^3 | 42 mm^3 | 32 mm^3 |  |
